Reference: patent US20260365670A1, “EGFR INHIBITORS AND USES THEREOF” (DIZAL (JIANGSU) PHARMACEUTICAL CO., LTD., priority 2022, published 2026)
Where two headings read alike, the source gives them in different places.

Columns and labels:
EGFR Exon19Del/T790M = biological target: T1, EGFR Exon19Del/T790M (Homo sapiens, UniProt P00533, DEL746-750/T790M); test: Inhibition of EGFR Exon19Del/T790M biochemical enzymatic activity (HTRF); details: EGFR Del19-T790M, 1 mM ATP, 1 h, room temperature, read-out: IC50 (nM) @Del19-T790M
T1 construct: purchased Carna Bio
How it was run: (§1)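 HTRF kinase assay: each EGFR enzyme phosphorylated 1 μM biotinylated TK substrate with 1 mM ATP in buffer containing 5 mM MgCl2, 1 mM MnCl2, 0.01% CHAPS, 1 mM DTT, 0.5% DMSO. After 1 h at room temperature, EDTA detection mix stopped the reaction. IC50 came from a four-parameter logistic fit of the 665/615 nm ratio.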

PC-9 = test: Cell proliferation assay, PC-9 cells (CellTiter-Glo, 72 hours); assay type: cell-based; details: PC9 cells, CellTiter-Glo, read-out: PC9 GI50
How it was run: (§2)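 Cells are exposed to graded compound concentrations after overnight plating, using 500 PC-9 or 5000 Ba/F3 per well. Baseline-subtracted viability is compared with vehicle to give percent proliferation, then GI50.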

EGFR wild type = biological target: T2, EGFR wild type (Homo sapiens, UniProt P00533); test: Inhibition of EGFR wild type biochemical enzymatic activity (HTRF); details: EGFR WT, 1 mM ATP, 1 h, room temperature, read-out: IC50 (nM) @WT
T2 construct: purchased Carna Bio
How it was run: as §1

EGFR (d746-750 C797S) = biological target: T3, EGFR (d746-750 C797S) (Homo sapiens, UniProt P00533, C797S/DEL746-750); test: Inhibition of EGFR (d746-750 C797S) biochemical enzymatic activity (HTRF); details: EGFR Del19-C797S, 1 mM ATP, 1 h, room temperature, read-out: IC50 (nM) @Del19-C797S
T3 construct: purchased signalchem
How it was run: as §1

EGFR L858R/T790M = biological target: T4, EGFR L858R/T790M (Homo sapiens, UniProt P00533, L858R/T790M); test: Inhibition of EGFR L858R/T790M biochemical enzymatic activity (HTRF); details: EGFR L858R-T790M, 1 mM ATP, 1 h, room temperature, read-out: IC50 (nM) @L858R-T790M
T4 construct: purchased Carna Bio
How it was run: as §1

EGFR L858R = biological target: T5, EGFR L858R (Homo sapiens, UniProt P00533, L858R); test: Inhibition of EGFR L858R biochemical enzymatic activity (HTRF); details: 1 mM ATP, 1 h, room temperature, read-out: IC50 (nM) @L858R
T5 construct: purchased Carna Bio
How it was run: as §1

EGFR Exon19Del = biological target: T6, EGFR Exon19Del (Homo sapiens, UniProt P00533, DEL746-750); test: Inhibition of EGFR Exon19Del biochemical enzymatic activity (HTRF); details: EGFR Del19, 1 mM ATP, 1 h, room temperature, read-out: IC50 @Del19
T6 construct: purchased Carna Bio
How it was run: as §1

[1] = tested on: Ba/F3 cells expressing EGFR mutations; test: Cell proliferation assay, Ba/F3 cells expressing EGFR mutations (CellTiter-Glo, 72 hours); assay type: cell-based; details: CellTiter-Glo
How it was run: as §2

A-431 = test: Cell proliferation GI50, A-431 cells (Table 6); assay type: cell-based; details: Homo sapiens, A-431, A-431 cells
EGFR (C797S L858R) = biological target: T7, EGFR (C797S L858R) (Homo sapiens, UniProt P00533, C797S/L858R); test: Inhibition of EGFR (C797S L858R) biochemical enzymatic activity (HTRF); details: EGFR L858-C797S, 1 mM ATP, 1 h, room temperature, read-out: IC50 (nM) @L858-C797S
T7 construct: purchased signalchem
How it was run: as §1

[2] = biological target: T8, EGFR[T790M/C797S/d746-750] (Homo sapiens, UniProt P00533, C797S/DEL746-750/T790M); test: Inhibition of EGFR[T790M/C797S/d746-750] biochemical enzymatic activity (HTRF); details: EGFR T790M-C797S-Del19, 1 mM ATP, 1 h, room temperature, read-out: IC50 (nM) @T790M - C797S - Del19
T8 construct: purchased Carna Bio
How it was run: as §1

EGFR[T790M/C797S/L858R] = biological target: T9, EGFR[T790M/C797S/L858R] (Homo sapiens, UniProt P00533, C797S/L858R/T790M); test: Inhibition of EGFR[T790M/C797S/L858R] biochemical enzymatic activity (HTRF); details: EGFR T790M-C797S-L858R, 1 mM ATP, 1 h, room temperature, read-out: IC50 (nM) @T790M- C797S - L858R
T9 construct: purchased Carna Bio
How it was run: as §1

[3] = Mus musculus, BaF3, 72 h, BaF3 cells, EGFR DEL19-C797S, read-out: DEL19-C797S/BaF3 GI50
[4] = Mus musculus, BaF3, 72 h, BaF3 cells, EGFR DEL19-T790-C797S, read-out: DEL19-T790-C797S/BaF3 GI50
[5] = Mus musculus, BaF3, 72 h, BaF3 cells, EGFR L858R, read-out: L858R/BaF3 GI50
[6] = Mus musculus, BaF3, 72 h, BaF3 cells, EGFR L858R-C797S, read-out: L858R-C797S/BaF3 GI50
[7] = Mus musculus, BaF3, 72 h, BaF3 cells, EGFR L858R-T790-C797S, read-out: L858R-T790-C797S/BaF3 GI50
[8] = Mus musculus, BaF3, 72 h, BaF3 cells, EGFR L858R-T790M, read-out: L858R-T790M/BaF3 GI50
[9] = Mus musculus, BaF3, 72 h, EGFR DEL19-T790M, read-out: DEL19-T790M GI50

T5 sequence (P00533 25-1210 L858R): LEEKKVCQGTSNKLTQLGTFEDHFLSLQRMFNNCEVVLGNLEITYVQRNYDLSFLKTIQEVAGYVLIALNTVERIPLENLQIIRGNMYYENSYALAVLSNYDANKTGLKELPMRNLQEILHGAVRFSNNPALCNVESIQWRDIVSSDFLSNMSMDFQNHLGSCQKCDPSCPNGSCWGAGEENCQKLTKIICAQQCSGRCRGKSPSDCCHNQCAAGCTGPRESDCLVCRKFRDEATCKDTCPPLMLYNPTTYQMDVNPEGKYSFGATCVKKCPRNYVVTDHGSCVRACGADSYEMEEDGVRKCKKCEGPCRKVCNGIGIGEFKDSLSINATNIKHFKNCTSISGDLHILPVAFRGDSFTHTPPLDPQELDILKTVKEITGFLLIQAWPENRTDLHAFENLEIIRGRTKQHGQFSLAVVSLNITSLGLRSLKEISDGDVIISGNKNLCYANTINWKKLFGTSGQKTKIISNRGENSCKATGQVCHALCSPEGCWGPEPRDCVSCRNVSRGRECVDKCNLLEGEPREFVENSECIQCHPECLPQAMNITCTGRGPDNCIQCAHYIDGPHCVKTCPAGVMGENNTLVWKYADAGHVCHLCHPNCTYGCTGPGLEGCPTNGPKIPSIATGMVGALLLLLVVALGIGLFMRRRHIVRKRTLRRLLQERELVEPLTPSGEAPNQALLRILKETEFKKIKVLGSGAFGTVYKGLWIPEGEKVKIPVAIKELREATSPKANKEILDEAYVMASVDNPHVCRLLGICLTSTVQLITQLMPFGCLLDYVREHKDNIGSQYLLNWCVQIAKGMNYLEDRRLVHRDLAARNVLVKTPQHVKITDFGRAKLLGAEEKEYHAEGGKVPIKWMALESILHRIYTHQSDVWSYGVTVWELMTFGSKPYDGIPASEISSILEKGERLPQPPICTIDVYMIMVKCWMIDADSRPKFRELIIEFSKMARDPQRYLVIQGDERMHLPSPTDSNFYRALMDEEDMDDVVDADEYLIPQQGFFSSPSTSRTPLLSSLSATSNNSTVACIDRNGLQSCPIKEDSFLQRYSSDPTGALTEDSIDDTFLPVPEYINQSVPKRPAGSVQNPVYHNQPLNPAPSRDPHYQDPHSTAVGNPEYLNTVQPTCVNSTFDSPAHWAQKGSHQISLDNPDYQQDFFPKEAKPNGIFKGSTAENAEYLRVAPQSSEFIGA
T1 sequence (P00533 with tags, fused parts or gaps DEL746-750/T790M limits assumed): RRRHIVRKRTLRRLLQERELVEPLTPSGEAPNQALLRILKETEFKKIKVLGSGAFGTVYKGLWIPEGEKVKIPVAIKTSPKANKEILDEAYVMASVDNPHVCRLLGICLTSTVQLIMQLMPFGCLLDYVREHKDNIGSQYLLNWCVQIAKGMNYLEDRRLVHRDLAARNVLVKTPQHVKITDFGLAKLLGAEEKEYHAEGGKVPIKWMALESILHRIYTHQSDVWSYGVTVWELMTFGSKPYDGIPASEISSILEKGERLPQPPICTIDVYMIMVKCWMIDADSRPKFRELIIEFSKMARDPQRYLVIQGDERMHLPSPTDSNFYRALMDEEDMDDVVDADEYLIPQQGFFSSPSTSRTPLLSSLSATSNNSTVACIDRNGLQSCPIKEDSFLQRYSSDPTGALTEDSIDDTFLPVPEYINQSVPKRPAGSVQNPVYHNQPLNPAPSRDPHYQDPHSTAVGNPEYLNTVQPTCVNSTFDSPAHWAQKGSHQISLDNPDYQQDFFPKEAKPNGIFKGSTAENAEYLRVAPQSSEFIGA
T9 sequence (P00533 25-1210 T790M/C797S/L858R): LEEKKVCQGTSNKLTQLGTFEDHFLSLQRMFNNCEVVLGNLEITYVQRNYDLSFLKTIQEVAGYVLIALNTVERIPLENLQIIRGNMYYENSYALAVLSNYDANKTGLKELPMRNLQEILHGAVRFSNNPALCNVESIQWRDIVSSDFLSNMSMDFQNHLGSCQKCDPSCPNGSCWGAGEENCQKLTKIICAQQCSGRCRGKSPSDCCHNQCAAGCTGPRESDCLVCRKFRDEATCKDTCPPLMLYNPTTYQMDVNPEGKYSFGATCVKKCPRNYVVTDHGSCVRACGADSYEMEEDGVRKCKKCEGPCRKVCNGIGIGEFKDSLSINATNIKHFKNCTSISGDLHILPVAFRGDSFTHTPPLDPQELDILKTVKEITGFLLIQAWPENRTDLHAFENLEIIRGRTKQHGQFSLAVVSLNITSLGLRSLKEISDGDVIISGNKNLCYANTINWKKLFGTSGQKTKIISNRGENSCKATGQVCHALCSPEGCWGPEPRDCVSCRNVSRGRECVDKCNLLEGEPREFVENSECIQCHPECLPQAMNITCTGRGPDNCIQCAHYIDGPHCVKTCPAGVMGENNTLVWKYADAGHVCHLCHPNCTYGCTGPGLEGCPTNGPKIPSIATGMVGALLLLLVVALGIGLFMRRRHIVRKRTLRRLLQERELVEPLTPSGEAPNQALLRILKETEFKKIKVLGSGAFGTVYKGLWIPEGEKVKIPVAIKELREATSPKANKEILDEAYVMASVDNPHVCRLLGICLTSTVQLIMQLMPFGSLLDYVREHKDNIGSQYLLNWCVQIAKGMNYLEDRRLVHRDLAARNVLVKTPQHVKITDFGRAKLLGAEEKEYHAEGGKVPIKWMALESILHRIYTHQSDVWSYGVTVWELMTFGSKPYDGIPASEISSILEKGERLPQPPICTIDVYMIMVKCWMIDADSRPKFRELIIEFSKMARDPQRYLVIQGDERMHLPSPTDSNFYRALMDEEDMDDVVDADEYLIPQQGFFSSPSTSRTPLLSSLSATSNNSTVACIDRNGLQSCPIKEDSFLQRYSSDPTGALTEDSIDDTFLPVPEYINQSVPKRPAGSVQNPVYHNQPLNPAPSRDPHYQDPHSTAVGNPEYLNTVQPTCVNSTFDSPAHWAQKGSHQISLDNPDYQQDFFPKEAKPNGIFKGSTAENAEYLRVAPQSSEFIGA
T8 sequence (P00533 with tags, fused parts or gaps DEL746-750/T790M/C797S limits assumed): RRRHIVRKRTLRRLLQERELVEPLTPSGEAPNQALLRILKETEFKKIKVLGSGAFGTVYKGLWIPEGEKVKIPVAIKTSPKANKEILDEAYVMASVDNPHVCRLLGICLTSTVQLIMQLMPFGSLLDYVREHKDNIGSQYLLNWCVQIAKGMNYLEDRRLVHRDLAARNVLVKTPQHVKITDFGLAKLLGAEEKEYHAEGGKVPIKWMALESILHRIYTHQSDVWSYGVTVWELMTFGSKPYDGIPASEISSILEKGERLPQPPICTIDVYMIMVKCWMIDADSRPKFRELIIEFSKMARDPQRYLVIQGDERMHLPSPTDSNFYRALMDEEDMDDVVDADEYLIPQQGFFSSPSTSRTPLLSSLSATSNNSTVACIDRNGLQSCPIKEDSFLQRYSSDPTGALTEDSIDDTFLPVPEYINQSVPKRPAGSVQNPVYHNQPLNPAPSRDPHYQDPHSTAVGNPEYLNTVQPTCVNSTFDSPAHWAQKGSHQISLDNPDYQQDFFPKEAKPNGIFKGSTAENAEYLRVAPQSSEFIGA
T4 sequence (P00533 25-1210 T790M/L858R): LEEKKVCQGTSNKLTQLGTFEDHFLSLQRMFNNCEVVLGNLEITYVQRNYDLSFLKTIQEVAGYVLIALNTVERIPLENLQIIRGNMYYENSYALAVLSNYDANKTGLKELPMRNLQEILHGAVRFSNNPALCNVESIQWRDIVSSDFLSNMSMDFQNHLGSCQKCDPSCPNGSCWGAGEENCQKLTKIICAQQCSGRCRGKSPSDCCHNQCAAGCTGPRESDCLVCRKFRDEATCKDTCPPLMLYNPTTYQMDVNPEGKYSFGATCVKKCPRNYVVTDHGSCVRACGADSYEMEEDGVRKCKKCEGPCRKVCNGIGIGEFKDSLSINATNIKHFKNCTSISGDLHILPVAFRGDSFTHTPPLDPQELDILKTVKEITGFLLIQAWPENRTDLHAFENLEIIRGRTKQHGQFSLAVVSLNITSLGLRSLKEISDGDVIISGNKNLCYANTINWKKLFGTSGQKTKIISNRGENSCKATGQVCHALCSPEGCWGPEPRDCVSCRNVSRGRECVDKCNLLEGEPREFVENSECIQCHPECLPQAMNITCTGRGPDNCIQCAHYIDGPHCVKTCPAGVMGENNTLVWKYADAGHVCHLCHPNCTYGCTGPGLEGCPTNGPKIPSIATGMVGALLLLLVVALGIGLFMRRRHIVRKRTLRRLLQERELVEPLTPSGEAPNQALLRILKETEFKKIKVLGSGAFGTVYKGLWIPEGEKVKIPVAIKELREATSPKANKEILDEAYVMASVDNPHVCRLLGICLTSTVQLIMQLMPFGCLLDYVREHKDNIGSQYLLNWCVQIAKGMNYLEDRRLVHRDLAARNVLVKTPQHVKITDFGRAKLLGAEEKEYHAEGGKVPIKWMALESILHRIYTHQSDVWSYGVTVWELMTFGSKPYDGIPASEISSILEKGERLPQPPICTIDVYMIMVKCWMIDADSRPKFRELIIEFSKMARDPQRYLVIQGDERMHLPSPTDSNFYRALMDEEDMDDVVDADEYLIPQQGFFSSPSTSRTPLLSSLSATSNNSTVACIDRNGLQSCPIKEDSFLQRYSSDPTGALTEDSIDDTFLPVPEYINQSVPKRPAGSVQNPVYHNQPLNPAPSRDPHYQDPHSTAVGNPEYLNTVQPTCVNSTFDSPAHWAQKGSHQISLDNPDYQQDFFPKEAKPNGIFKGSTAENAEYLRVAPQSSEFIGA

Structure (SMILES)	IC50 (EGFR Exon19Del/T790M) [nM]	GI50 (PC-9; Homo sapiens, PC-9, 72 h) [nM]	IC50 (EGFR wild type) [nM]	IC50 (EGFR (d746-750 C797S)) [nM]	IC50 (EGFR L858R/T790M) [nM]	IC50 (EGFR L858R) [nM]	IC50 (EGFR Exon19Del) [nM]	GI50 [1, 3] [nM]	GI50 [1, 4] [nM]	GI50 [1, 5] [nM]	GI50 [1, 6] [nM]	GI50 [1, 7] [nM]	GI50 [1, 8] [nM]	GI50 [1, 9] [nM]	GI50 (A-431) [nM]	IC50 (EGFR (C797S L858R)) [nM]	IC50 [2] [nM]	IC50 (EGFR[T790M/C797S/L858R]) [nM]	further results
C[C@@H]1CCCOc2c(cnn2C)-c2cc(cn(C)c2=O)C(=O)Nc2nc3ccc(N4CCC(N5CCN(C)CC5)C4)cc3n2C1 (stereo partly drawn) [Example A33]	3.4	4.8	22	2.1	5.8	7.3	3.1	0.4	0.58	1.1	2.2	2.3	3.4	3.2	366	6	3.1	5.2	–
CCn1cc2cc(c1=O)-c1cnn(C)c1OCCC[C@@H](C)Cn1c(nc3ccc(N4CCN(C)CC4)cc31)NC2=O [Example A14, (11R)-26-Ethyl-5,11-dimethyl-16-(4-methylpiperazin-1-yl)-7-oxa-4,5,13,20,22,26-hexaazapentacyclo[22.3.1.0^{2,6}.0^{13,21}.0^{14,19}]octacosa-1(28),2(6),3,14,16,18,20,24-octaene-23,27-dione]	132	152	> 5000	63	> 5000	> 5000	144	57	356	305	188	459	866	462	2240	> 5000	59	> 5000	–
C[C@@H]1CCCOc2c(cnn2C)-c2cc(cn(C)c2=O)C(=O)Nc2nc3ccc(N(C)CCN(C)C)cc3n2C1 [Example A36]	2.5	14	193	2.1	8	30	3	2.1	6	5.1	5.9	4.7	23	7.8	591	14	2.4	4.9	–
C[C@@H]1CCCOc2c(cnn2C)-c2cc(cn(C)c2=O)C(=O)Nc2nc3ccc(N4CC(N5CCN(C)CC5)C4)cc3n2C1 [Example A46]	4.1	5.4	104	2.2	8.5	14	2.6	1.2	6.8	3.1	2.4	2	12	8.1	221	8.5	3.9	5.7	–

The next lines start with results.

IC50 (EGFR Exon19Del/T790M) [nM]	GI50 (PC-9; Homo sapiens, PC-9, 72 h) [nM]	IC50 (EGFR wild type) [nM]	IC50 (EGFR (d746-750 C797S)) [nM]	IC50 (EGFR L858R/T790M) [nM]	IC50 (EGFR L858R) [nM]	IC50 (EGFR Exon19Del) [nM]	GI50 [1, 3] [nM]	GI50 [1, 4] [nM]	GI50 [1, 5] [nM]	GI50 [1, 6] [nM]	GI50 [1, 7] [nM]	GI50 [1, 8] [nM]	GI50 [1, 9] [nM]	GI50 (A-431) [nM]	IC50 (EGFR (C797S L858R)) [nM]	IC50 [2] [nM]	IC50 (EGFR[T790M/C797S/L858R]) [nM]	Structure (SMILES)	further results
2.2	–	84	1.6	3.1	11	1.2	–	–	–	–	–	–	–	969	5.5	2.2	3.1	CN(C)CCN(C)c1ccc2nc3n(c2c1)C12CCC(CN(CCOc4c(cnn4C)-c4cc(cn(C)c4=O)C(=O)N3)C1)C2 (single isomer, unassigned) [Example A85B]	GI50 (PC-9): 12 nM; GI50 ([1]; BaF3 cells, EGFR DEL19-C797S, read-out: DEL19-C797S/BaF3 GI50): 0.5 nM; GI50 ([1]; BaF3 cells, EGFR DEL19-T790-C797S, read-out: DEL19-T790-C797S/BaF3 GI50): 1.1 nM; GI50 ([1]; BaF3 cells, EGFR L858R, read-out: L858R/BaF3 GI50): 0.78 nM; GI50 ([1]; BaF3 cells, EGFR L858R-C797S, read-out: L858R-C797S/BaF3 GI50): 1.6 nM; GI50 ([1]; BaF3 cells, EGFR L858R-T790-C797S, read-out: L858R-T790-C797S/BaF3 GI50): 1.2 nM; GI50 ([1]; BaF3 cells, EGFR L858R-T790M, read-out: L858R-T790M/BaF3 GI50): 7.7 nM; GI50 ([1]; EGFR DEL19-T790M, read-out: DEL19-T790M GI50): 1.3 nM
31	245	> 5000	41	213	3040	118	32	104	192	188	228	288	153	1910	887	31	10	C[C@@H]1CCCOc2c(cnn2C)-c2cc(cn(C)c2=O)C(=O)Nc2nc3ccc(N4CCN(C(=O)OC(C)(C)C)CC4)cc3n2C1 [Example A54]	–
